Measurements reported in patent US12264134B2 (Merck Sharp & Dohme LLC, priority 2018, dated 2025).

Target: IDO1 (Homo sapiens, UniProt P14902)
Assay: IDO1 Cellular Assay in HeLa Cells Stimulated with IFNγ
Format: cell-based
Settings: read-out: HeLa Cell Potency, IC50

Sequence of IDO1 (P14902 whole entry): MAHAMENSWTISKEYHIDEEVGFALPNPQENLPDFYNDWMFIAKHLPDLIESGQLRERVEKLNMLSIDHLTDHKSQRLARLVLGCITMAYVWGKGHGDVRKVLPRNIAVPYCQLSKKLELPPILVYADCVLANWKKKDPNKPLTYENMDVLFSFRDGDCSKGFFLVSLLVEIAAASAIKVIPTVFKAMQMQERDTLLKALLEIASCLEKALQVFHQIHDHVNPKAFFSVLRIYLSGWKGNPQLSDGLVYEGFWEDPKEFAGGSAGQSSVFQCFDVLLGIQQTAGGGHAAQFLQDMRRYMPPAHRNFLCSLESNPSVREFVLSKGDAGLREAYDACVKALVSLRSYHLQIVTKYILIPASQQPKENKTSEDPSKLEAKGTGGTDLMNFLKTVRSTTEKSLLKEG

Compound | IC50 [nM]
Cc1cccc(N2CCN(C(=O)Cn3nc(C(=O)N4CCCC(NC(N)=O)C4)c4c3C[C@H]3C[C@@H]43)CC2)c1C (stereo partly drawn) [Example 272, N-{1-[(3bR,4aR)-1-{2-[4-(2,3-dimethylphenyl)piperazin-1-yl]-2-oxoethyl}-3b,4,4a,5-tetrahydro-1H-cyclopropa[3,4]cyclopenta[1,2-c]pyrazole-3-carbonyl]piperidin-3-yl}urea] | 16.3
Cc1cccc(N2CCN(C(=O)Cn3nc(C(=O)N4CCC5C(C4)NC(=O)N5C)c4c3C[C@H]3C[C@@H]43)CC2)c1C (stereo partly drawn) [Example 273, 5-[(3bR,4aR)-1-{2-[4-(2,3-dimethylphenyl)piperazin-1-yl]-2-oxoethyl}-3b,4,4a,5-tetrahydro-1H-cyclopropa[3,4]cyclopenta[1,2-c]pyrazole-3-carbonyl]-1-methyloctahydro-2H-imidazo[4,5-c]pyridin-2-one] | 38.7
Cc1cccc(N2CCN(C(=O)Cn3nc(C(=O)N4CCOCC4CO)c4c3C[C@H]3C[C@@H]43)CC2)c1C (stereo partly drawn) [Example 274, 1-[4-(2,3-dimethylphenyl)piperazin-1-yl]-2-{(3bR,4aR)-3-[3-(hydroxymethyl)morpholine-4-carbonyl]-3b,4,4a,5-tetrahydro-1H-cyclopropa[3,4]cyclopenta[1,2-c]pyrazol-1-yl}ethan-1-one] | 6.37
Cc1cccc(N2CCN(C(=O)Cn3nc(C(=O)N4CCC5(CC4)COC(CO)C5)c4c3C[C@H]3C[C@@H]43)CC2)c1C (stereo partly drawn) [Example 275, 1-[4-(2,3-dimethylphenyl)piperazin-1-yl]-2-{(3bR,4aR)-3-[3-(hydroxymethyl)-2-oxa-8-azaspiro[4.5]decane-8-carbonyl]-3b,4,4a,5-tetrahydro-1H-cyclopropa[3,4]cyclopenta[1,2-c]pyrazol-1-yl}ethan-1-one] | 0.8
Cc1cccc(N2CCN(C(=O)Cn3nc(C(=O)N4CCC(OCCO)CC4)c4c3C[C@H]3C[C@@H]43)CC2)c1C [Example 277, 1-[4-(2,3-dimethylphenyl)piperazin-1-yl]-2-{(3bR,4aR)-3-[4-(2-hydroxyethoxy)piperidine-1-carbonyl]-3b,4,4a,5-tetrahydro-1H-cyclopropa[3,4]cyclopenta[1,2-c]pyrazol-1-yl}ethan-1-one] | < 0.51
Cc1cccc(N2CCN(C(=O)Cn3nc(C(=O)N4CC[C@H](O)[C@@H](C)C4)c4c3C[C@H]3C[C@@H]43)CC2)c1C [Example 282, 1-[4-(2,3-dimethylphenyl)piperazin-1-yl]-2-{(3bR,4aR)-3-[(3S,4S)-4-hydroxy-3-methylpiperidine-1-carbonyl]-3b,4,4a,5-tetrahydro-1H-cyclopropa[3,4]cyclopenta[1,2-c]pyrazol-1-yl}ethan-1-one] | 0.97
Cc1cccc(N2CCN(C(=O)Cn3nc(C(=O)N4CCN(C(=O)CO)CC4)c4c3CC3CC43)CC2)c1C (stereo not drawn) [Example 287, 1-[4-(2,3-dimethylphenyl)piperazin-1-yl]-2-{3-[4-(hydroxyacetyl)piperazine-1-carbonyl]-3b,4,4a,5-tetrahydro-1H-cyclopropa[3,4]cyclopenta[1,2-c]pyrazol-1-yl}ethan-1-one] | 1.64
Cc1cccc(N2CCN(C(=O)Cn3nc(C(=O)N4C[C@H](O)C[C@H]4C)c4c3C[C@H]3C[C@@H]43)CC2)c1C [Example 292, 1-[4-(2,3-dimethylphenyl)piperazin-1-yl]-2-{(3bR,4aR)-3-[(2R,4R)-4-hydroxy-2-methylpyrrolidine-1-carbonyl]-3b,4,4a,5-tetrahydro-1H-cyclopropa[3,4]cyclopenta[1,2-c]pyrazol-1-yl}ethan-1-one] | 3.7
Cc1cccc(N2CCN(C(=O)Cn3nc(C(=O)N4C[C@@H](C)O[C@@H](C)C4)c4c3CC[C@@H](C(F)(F)F)C4)CC2)c1C [Example 295, 2-[(5R)-3-[(2R,6S)-2,6-dimethylmorpholine-4-carbonyl]-5-(trifluoromethyl)-4,5,6,7-tetrahydro-1H-indazol-1-yl]-1-[4-(2,3-dimethylphenyl)piperazin-1-yl]ethan-1-one] | 6.69
Cc1cccc(N2CCN(C(=O)Cn3nc(C(=O)N4CC[C@@H](O)[C@@H](F)C4)c4c3C[C@@H]3C[C@H]43)CC2)c1C [Example 298, 1-[4-(2,3-dimethylphenyl)piperazin-1-yl]-2-{(3bS,4aS)-3-[(3S,4R)-3-fluoro-4-hydroxypiperidine-1-carbonyl]-3b,4,4a,5-tetrahydro-1H-cyclopropa[3,4]cyclopenta[1,2-c]pyrazol-1-yl}ethan-1-one] | 14.3
Cc1cccc(N2CCN(C(=O)Cn3nc(C(=O)N4C[C@@H](C)O[C@@H](C)C4)c4c3C[C@@H]3C[C@H]43)CC2)c1C [Example 299, 2-{(3bS,4aS)-3-[(2R,6S)-2,6-dimethylmorpholine-4-carbonyl]-3b,4,4a,5-tetrahydro-1H-cyclopropa[3,4]cyclopenta[1,2-c]pyrazol-1-yl}-1-[4-(2,3-dimethylphenyl)piperazin-1-yl]ethan-1-one] | 15.1
Cc1cccc(N2CCN(C(=O)Cn3nc(C(=O)N4CCC(F)(CO)C4)c4c3CCC4)CC2)c1C (stereo not drawn) [Example 300, 1-[4-(2,3-dimethylphenyl)piperazin-1-yl]-2-{3-[3-fluoro-3-(hydroxymethyl)pyrrolidine-1-carbonyl]-5,6-dihydrocyclopenta[c]pyrazol-1(4H)-yl}ethan-1-one] | 16.9
Cc1cccc(N2CCN(C(=O)Cn3nc(C(=O)N4CC5(CO)CC4C5)c4c3CCC4)CC2)c1C [Example 301, 1-[4-(2,3-dimethylphenyl)piperazin-1-yl]-2-{3-[4-(hydroxymethyl)-2-azabicyclo[2.1.1]hexane-2-carbonyl]-5,6-dihydrocyclopenta[c]pyrazol-1(4H)-yl}ethan-1-one] | 17.1
Cc1cccc(N2CCN(C(=O)Cn3nc(C(=O)N4C[C@@H](C)O[C@@H](C)C4)c4c3CC[C@H](C(F)(F)F)C4)CC2)c1C [Example 302, 2-[(5S)-3-[(2R,6S)-2,6-dimethylmorpholine-4-carbonyl]-5-(trifluoromethyl)-4,5,6,7-tetrahydro-1H-indazol-1-yl]-1-[4-(2,3-dimethylphenyl)piperazin-1-yl]ethan-1-one] | 24.9
Cc1cccc(N2CCN(C(=O)Cn3nc(C(=O)N4C[C@@H](C)O[C@@H](C)C4)c4c3CCC(C(F)(F)F)C4)CC2)c1C (stereo partly drawn) [Example 303, 2-{3-[(2R,6S)-2,6-dimethylmorpholine-4-carbonyl]-5-(trifluoromethyl)-4,5,6,7-tetrahydro-1H-indazol-1-yl}-1-[4-(2,3-dimethylphenyl)piperazin-1-yl]ethan-1-one] | 29.9
Cc1cccc(N2CCN(C(=O)Cn3nc(C(=O)N4CC[C@@H](O)[C@@H](F)C4)c4c3CCC3(C4)CC3(F)F)CC2)c1C (stereo partly drawn) [Example 304, 2-{2,2-difluoro-3′-[(3S,4R)-3-fluoro-4-hydroxypiperidine-1-carbonyl]-6′,7′-dihydrospiro[cyclopropane-1,5-indazol]-1′(′4H)-yl}-1-[4-(2,3-dimethylphenyl)piperazin-1-yl]ethan-1-one] | 30.2
Cc1cccc(N2CCN(C(=O)Cn3nc(C(=O)N4CC5(CC(O)C5)C4)c4c3CCC4)CC2)c1C [Example 305, 1-[4-(2,3-dimethylphenyl)piperazin-1-yl]-2-[3-(6-hydroxy-2-azaspiro[3.3]heptane-2-carbonyl)-5,6-dihydrocyclopenta[c]pyrazol-1(4H)-yl]ethan-1-one] | 48
Cc1cccc(N2CCN(C(=O)Cn3nc(C(=O)N4CC5CC(C4)C5O)c4c3CCC4)CC2)c1C (stereo not drawn) [Example 306, 1-[4-(2,3-dimethylphenyl)piperazin-1-yl]-2-[3-(6-hydroxy-3-azabicyclo[3.1.1]heptane-3-carbonyl)-5,6-dihydrocyclopenta[c]pyrazol-1(4H)-yl]ethan-1-one] | 55.4
Cc1cccc(N2CCN(C(=O)Cn3nc(C(=O)N4CC[C@H](O)[C@H](F)C4)c4c3C[C@@H]3C[C@H]43)CC2)c1C [Example 307, 1-[4-(2,3-dimethylphenyl)piperazin-1-yl]-2-{(3bS,4aS)-3-[(3R,4S)-3-fluoro-4-hydroxypiperidine-1-carbonyl]-3b,4,4a,5-tetrahydro-1H-cyclopropa[3,4]cyclopenta[1,2-c]pyrazol-1-yl}ethan-1-one] | 71.4
Cc1cccc(N2CCN(C(=O)Cn3nc(C(=O)N4C[C@@H](O)[C@@H](O)C4)c4c3CCC4)CC2)c1C [Example 308, 2-{3-[(3R,4S)-3,4-dihydroxypyrrolidine-1-carbonyl]-5,6-dihydrocyclopenta[c]pyrazol-1(4H)-yl}-1-[4-(2,3-dimethylphenyl)piperazin-1-yl]ethan-1-one] | 400
Cc1cccc(N2CCN(C(=O)Cn3nc(C(=O)N4C[C@H](O)[C@@H](O)C4)c4c3CCC4)CC2)c1C [Example 309, 2-{3-[(3S,4S)-3,4-dihydroxypyrrolidine-1-carbonyl]-5,6-dihydrocyclopenta[c]pyrazol-1(4H)-yl}-1-[4-(2,3-dimethylphenyl)piperazin-1-yl]ethan-1-one] | 410
Cc1cccc(N2CCN(C(=O)Cn3nc(C(=O)N4C[C@@H](C)O[C@@H](C)C4)c4c3CC3CC43)CC2)c1C (stereo partly drawn) [Example 310, 2-{3-[(2R,6S)-2,6-dimethylmorpholine-4-carbonyl]-3b-4,4a,5-tetrahydro-1H-cyclopropa[3,4]cyclopenta[1,2-c]pyrazol-1-yl}-1-[4-(2,3-dimethylphenyl)piperazin-1-yl]ethan-1-one] | 1.86
Cc1cccc(N2CCN(C(=O)Cn3nc(C(=O)N4C[C@@H](C)O[C@@H](C)C4)c4c3C3CC3C4)CC2)c1C (stereo partly drawn) [Example 311, 2-{3-[(2R,6S)-2,6-dimethylmorpholine-4-carbonyl]-4,4a,5,5a-tetrahydro-1H-cyclopropa[4,5]cyclopenta[1,2-c]pyrazol-1-yl}-1-[4-(2,3-dimethylphenyl)piperazin-1-yl]ethan-1-one] | 4.39
Cc1c(Cl)cccc1N1CCN(C(=O)Cn2nc(C(=O)N3CCC(OCCO)CC3)c3c2C[C@H]2C[C@@H]32)C2(CC2)C1 [Example 312, 1-(7-(3-chloro-2-methylphenyl)-4,7-diazaspiro[2.5]octan-4-yl)-2-((3bR,4aR)-3-(4-(2-hydroxyethoxy)piperidine-1-carbonyl)-3b,4,4a,5-tetrahydro-1H-cyclopropa[3,4]cyclopenta[1,2-c]pyrazol-1-yl)ethan-1-one] | 1.74
